Results as given in BigSolDB 2.1.

Structure (SMILES): CC(=O)N[C@@H](CC(C)C)C(=O)O
- solubility (mole fraction) (in acetone, 283.15 K): 0.00363
- solubility (mole fraction) (in acetone, 288.15 K): 0.00434
- solubility (mole fraction) (in acetone, 293.15 K): 0.00525
- solubility (mole fraction) (in acetone, 298.15 K): 0.0062
- solubility (mole fraction) (in acetone, 303.15 K): 0.00734
- solubility (mole fraction) (in acetone, 308.15 K): 0.00886
- solubility (mole fraction) (in acetone, 313.15 K): 0.0106
- solubility (mole fraction) (in acetone, 318.15 K): 0.0124
- solubility (mole fraction) (in acetone, 323.15 K): 0.0146
- solubility (mole fraction) (in acetonitrile, 283.15 K): 0.000712
- solubility (mole fraction) (in acetonitrile, 288.15 K): 0.000811
- solubility (mole fraction) (in acetonitrile, 293.15 K): 0.00114
- solubility (mole fraction) (in acetonitrile, 298.15 K): 0.00141
- solubility (mole fraction) (in acetonitrile, 303.15 K): 0.00163
- solubility (mole fraction) (in acetonitrile, 308.15 K): 0.00198
- solubility (mole fraction) (in acetonitrile, 313.15 K): 0.00249
- solubility (mole fraction) (in acetonitrile, 318.15 K): 0.00295
- solubility (mole fraction) (in acetonitrile, 323.15 K): 0.00335
- solubility (mole fraction) (in ethanol, 283.15 K): 0.0243
- solubility (mole fraction) (in ethanol, 288.15 K): 0.0278
- solubility (mole fraction) (in ethanol, 293.15 K): 0.0314
- solubility (mole fraction) (in ethanol, 298.15 K): 0.0353
- solubility (mole fraction) (in ethanol, 303.15 K): 0.0396
- solubility (mole fraction) (in ethanol, 308.15 K): 0.0456
- solubility (mole fraction) (in ethanol, 313.15 K): 0.0504
- solubility (mole fraction) (in ethanol, 318.15 K): 0.0567
- solubility (mole fraction) (in ethanol, 323.15 K): 0.0624
- solubility (mole fraction) (in ethyl acetate, 283.15 K): 0.00103
- solubility (mole fraction) (in ethyl acetate, 288.15 K): 0.00127
- solubility (mole fraction) (in ethyl acetate, 293.15 K): 0.0015
- solubility (mole fraction) (in ethyl acetate, 298.15 K): 0.00178
- solubility (mole fraction) (in ethyl acetate, 303.15 K): 0.00207
- solubility (mole fraction) (in ethyl acetate, 308.15 K): 0.00243
- solubility (mole fraction) (in ethyl acetate, 313.15 K): 0.0028
- solubility (mole fraction) (in ethyl acetate, 318.15 K): 0.00328
- solubility (mole fraction) (in ethyl acetate, 323.15 K): 0.00374
- solubility (mole fraction) (in isobutanol, 283.15 K): 0.0148
- solubility (mole fraction) (in isobutanol, 288.15 K): 0.0176
- solubility (mole fraction) (in isobutanol, 293.15 K): 0.0206
- solubility (mole fraction) (in isobutanol, 298.15 K): 0.0242
- solubility (mole fraction) (in isobutanol, 303.15 K): 0.0283
- solubility (mole fraction) (in isobutanol, 308.15 K): 0.0328
- solubility (mole fraction) (in isobutanol, 313.15 K): 0.0375
- solubility (mole fraction) (in isobutanol, 318.15 K): 0.0425
- solubility (mole fraction) (in isobutanol, 323.15 K): 0.0478
- solubility (mole fraction) (in isopropanol, 283.15 K): 0.0177
- solubility (mole fraction) (in isopropanol, 288.15 K): 0.0206
- solubility (mole fraction) (in isopropanol, 293.15 K): 0.0238
- solubility (mole fraction) (in isopropanol, 298.15 K): 0.0274
- solubility (mole fraction) (in isopropanol, 303.15 K): 0.0313
- solubility (mole fraction) (in isopropanol, 308.15 K): 0.0354
- solubility (mole fraction) (in isopropanol, 313.15 K): 0.0405
- solubility (mole fraction) (in isopropanol, 318.15 K): 0.0464
- solubility (mole fraction) (in isopropanol, 323.15 K): 0.0526
- solubility (mole fraction) (in methanol, 283.15 K): 0.0309
- solubility (mole fraction) (in methanol, 288.15 K): 0.0357
- solubility (mole fraction) (in methanol, 293.15 K): 0.0403
- solubility (mole fraction) (in methanol, 298.15 K): 0.0456
- solubility (mole fraction) (in methanol, 303.15 K): 0.0514
- solubility (mole fraction) (in methanol, 308.15 K): 0.0589
- solubility (mole fraction) (in methanol, 313.15 K): 0.066
- solubility (mole fraction) (in methanol, 318.15 K): 0.0729
- solubility (mole fraction) (in methanol, 323.15 K): 0.0824
- solubility (mole fraction) (in methyl acetate, 283.15 K): 0.00106
- solubility (mole fraction) (in methyl acetate, 288.15 K): 0.00134
- solubility (mole fraction) (in methyl acetate, 293.15 K): 0.00159
- solubility (mole fraction) (in methyl acetate, 298.15 K): 0.00191
- solubility (mole fraction) (in methyl acetate, 303.15 K): 0.00223
- solubility (mole fraction) (in methyl acetate, 308.15 K): 0.00259
- solubility (mole fraction) (in methyl acetate, 313.15 K): 0.0033
- solubility (mole fraction) (in methyl acetate, 318.15 K): 0.00396
- solubility (mole fraction) (in methyl acetate, 323.15 K): 0.00453
- solubility (mole fraction) (in n-butanol, 283.15 K): 0.017
- solubility (mole fraction) (in n-butanol, 288.15 K): 0.0192
- solubility (mole fraction) (in n-butanol, 293.15 K): 0.0221
- solubility (mole fraction) (in n-butanol, 298.15 K): 0.0255
- solubility (mole fraction) (in n-butanol, 303.15 K): 0.0291
- solubility (mole fraction) (in n-butanol, 308.15 K): 0.0331
- solubility (mole fraction) (in n-butanol, 313.15 K): 0.0379
- solubility (mole fraction) (in n-butanol, 318.15 K): 0.0429
- solubility (mole fraction) (in n-butanol, 323.15 K): 0.0489
- solubility (mole fraction) (in n-propanol, 283.15 K): 0.0196
- solubility (mole fraction) (in n-propanol, 288.15 K): 0.0223
- solubility (mole fraction) (in n-propanol, 293.15 K): 0.0251
- solubility (mole fraction) (in n-propanol, 298.15 K): 0.0286
- solubility (mole fraction) (in n-propanol, 303.15 K): 0.0329
- solubility (mole fraction) (in n-propanol, 308.15 K): 0.0376
- solubility (mole fraction) (in n-propanol, 313.15 K): 0.0424
- solubility (mole fraction) (in n-propanol, 318.15 K): 0.0478
- solubility (mole fraction) (in n-propanol, 323.15 K): 0.0541
- solubility (mole fraction) (in n-propyl acetate, 283.15 K): 0.00087
- solubility (mole fraction) (in n-propyl acetate, 288.15 K): 0.00107
- solubility (mole fraction) (in n-propyl acetate, 293.15 K): 0.00126
- solubility (mole fraction) (in n-propyl acetate, 298.15 K): 0.00149
- solubility (mole fraction) (in n-propyl acetate, 303.15 K): 0.00177
- solubility (mole fraction) (in n-propyl acetate, 308.15 K): 0.00211
- solubility (mole fraction) (in n-propyl acetate, 313.15 K): 0.00249
- solubility (mole fraction) (in n-propyl acetate, 318.15 K): 0.003
- solubility (mole fraction) (in n-propyl acetate, 323.15 K): 0.00357
- solubility (mole fraction) (in sec-butanol, 283.15 K): 0.0177
- solubility (mole fraction) (in sec-butanol, 288.15 K): 0.0207
- solubility (mole fraction) (in sec-butanol, 293.15 K): 0.0241
- solubility (mole fraction) (in sec-butanol, 298.15 K): 0.0279
- solubility (mole fraction) (in sec-butanol, 303.15 K): 0.0325
- solubility (mole fraction) (in sec-butanol, 308.15 K): 0.037
- solubility (mole fraction) (in sec-butanol, 313.15 K): 0.042
- solubility (mole fraction) (in sec-butanol, 318.15 K): 0.0473
- solubility (mole fraction) (in sec-butanol, 323.15 K): 0.0541
